Experimental data: patent US20220249597A1, “MIF INHIBITORS AND METHODS OF USE THEREOF” (The Johns Hopkins University, priority 2016, published 2022)

Legend:
[1] = system: HeLa cells; assay: Pulse-field gel electrophoresis assay of MNNG-induced DNA damage in HeLa cells; format: cell-based, human; conditions: DPQ 30 μM; ISO-1 100 μM
Source text: FIGS. 2A-2D. FIG. 2. MIF is a novel nuclease that cleaves genomic DNA.

[2] = system: HeLa cells; format: cell-based, human; conditions: DPQ 30 μM
Method: FIGS. 21A-21J. FIG. 21. […] Scale bar, 20 μm.
For immunocytochemistry, cells were fixed 4 hours after MNNG or NMDA treatment with 4% paraformaldehyde, permeabilized with 0.05% Triton X-100, and blocked with 3% BSA in PBS. AIF was visualized by Donkey anti-Rabbit Cy3 or donkey anti-rabbit 647. MIF was visualized by donkey anti-mouse cy2 (2 μg/ml), donkey anti-goat Cy2 or donkey anti-goat 647. Immunohistochemistry was performed with an antibody against Flag. Immunofluorescence analysis was carried out with an LSM710 confocal laser scanning microscope (Carl Zeiss) as described (9).

[3] = system: cortical neurons; conditions: N-Arg 100 μM
Method: (H-J) Nuclear translocation of AIF and MIF after NMDA treatment in the presence or absence PARP inhibitor DPQ or nNOS inhibitor nitro-arginine (N-Arg, 100 μM) in cortical neurons, which was determined by subcellular fractionation. Intensity of MIF and AIF signal is shown in I & J. The experiments were replicated in three independent trials. The experiments were replicated in three independent trials. ***P<0.001, one-way ANOVA.
Primary neuronal cultures from cortex were prepared as previously described (9). Briefly, the cortex was dissected and the cells were dissociated by trituration in modified Eagle's medium (MEM), 20% horse serum, 30 mM glucose, and 2 mM L-glutamine after a 10-min digestion in 0.027% trypsin/saline solution (Gibco-BRL). The neurons were plated on 15-mm multiwell plates coated with polyornithine or on coverslips coated with polyornithine. Neurons were maintained in MEM, 10% horse serum, 30 mM glucose, and 2 mM L-glutamine in a 7% CO2 humidified 37° C. incubator. The growth medium was replaced twice per week. In mature cultures, neurons represent 70 to 90% of the total number of cells. […] Parthanatos was induced by either MNNG (Sigma) in HeLa cells or NMDA (Sigma) in neurons. […]

O=C1NCCc2c(OCCCCN3CCCCC3)cccc21 [DPQ, 3,4-dihydro-5[4-(1-piperindinyl)butoxy]-1(2H)-isoquinoline]
Effect on MNNG induced DNA damage / DNA cleavage [1]: prevents MNNG induced DNA cleavage
Accumulation of MIF and AIF in the nucleus after MNNG treatment [2]: prevents accumulation of both MIF and AIF in the nucleus
Accumulation of MIF and AIF in the nucleus after NMDA administration [3]: prevents accumulation of both MIF and AIF in the nucleus
